In ChEMBL document CHEMBL1139968, “Cytotoxic effects of C-glycosides in HOS and HeLa cell lines” (2007):

Columns and labels:
HeLa = assay: Antiproliferative activity against human HeLa cells by SRB assay; format: functional
HOS = assay: Antiproliferative activity against human HOS cells by SRB assay; format: functional

Row | Compound | GI50 (HeLa) [µM] | GI50 (HOS) [µM]
1 | c1ccc(COC[C@H]2O[C@@H]3C[C@@H]3[C@@H](OCc3ccccc3)[C@@H]2OCc2ccccc2)cc1 | > 50 | > 50
2 | CCCCC[C@@H]1O[C@H](COCc2ccccc2)[C@@H](OCc2ccccc2)[C@H](OCc2ccccc2)C1=O | > 50 | > 50
3 | CCCCOC[C@H]1O[C@@H](CCC)[C@H](O)[C@@H](OCCCC)C1OCCCC (some centres undefined) | > 50 | > 50
4 | C=CC[C@@H]1O[C@H](COCc2ccccc2)[C@@H](OCc2ccccc2)[C@H](OCc2ccccc2)[C@H]1O | 26.2 | 44.1
5 | c1ccc(COC[C@H]2OCC[C@@H](OCc3ccccc3)[C@@H]2OCc2ccccc2)cc1 | 33.3 | 22.2
6 | c1ccc(COC[C@H]2O[C@H]3C[C@H]3[C@@H](OCc3ccccc3)[C@@H]2OCc2ccccc2)cc1 | > 50 | > 50
7 | CCC[C@@H]1O[C@H](COCc2ccccc2)[C@@H](OCc2ccccc2)[C@H](OCc2ccccc2)[C@H]1O | 18.9 | 38.6
8 | C[C@@H]1O[C@H](COCc2ccccc2)[C@@H](OCc2ccccc2)[C@H](OCc2ccccc2)[C@H]1O | > 50 | > 50
9 | CCC[C@H]1O[C@H](COCc2ccccc2)[C@@H](OCc2ccccc2)[C@H](OCc2ccccc2)[C@H]1O | 17.4 | 23.6
10 | CC(C)C[C@@H]1O[C@H](COCc2ccccc2)[C@@H](OCc2ccccc2)[C@H](OCc2ccccc2)[C@H]1O | > 50 | 45.2
11 | CCCCCCCCCCCCCCCOC[C@H]1O[C@@H](CCC)[C@H](O)[C@@H](OCCCCCCCCCCCCCCC)[C@@H]1OCCCCCCCCCCCCCCC | > 50 | > 50
12 | CCCC[C@@H]1O[C@H](COCc2ccccc2)[C@@H](OCc2ccccc2)[C@H](OCc2ccccc2)[C@H]1O | > 50 | 40.1
13 | CCC[C@@H]1O[C@H](COCc2ccccc2)[C@@H](OCc2ccccc2)[C@H](OCc2ccccc2)[C@@H]1O | 23.3 | > 50
14 | c1ccc(COC[C@H]2O[C@@H](Cc3ccccc3)[C@H](OCc3ccccc3)[C@@H](OCc3ccccc3)[C@@H]2OCc2ccccc2)cc1 | > 50 | > 50
15 | CC(=O)OC[C@H]1O[C@@H](Cc2ccccc2)[C@H](OC(C)=O)[C@@H](OCc2ccccc2)[C@@H]1OC(C)=O | > 50 | > 50
16 | CCC[C@H]1O[C@H](COCc2ccc(F)cc2)[C@@H](OCc2ccc(F)cc2)[C@H](OCc2ccc(F)cc2)[C@H]1O | 5.6 | > 50
17 | OC[C@@H]1O[C@H](COCc2ccccc2)[C@@H](OCc2ccccc2)[C@H](OCc2ccccc2)[C@H]1O | 25.8 | 27.3
18 | CCC[C@@H]1O[C@H](COCc2ccccc2)[C@@H](OCc2ccccc2)[C@H](OCc2ccccc2)C1=O | > 50 | > 50
19 | O[C@@H]1[C@@H](OCc2ccccc2)[C@H](OCc2ccccc2)[C@@H](COCc2ccccc2)O[C@H]1c1ccccc1 | > 50 | > 50
20 | OC[C@H]1O[C@@H](Cc2ccccc2)[C@H](O)[C@@H](OCc2ccccc2)[C@@H]1OCc1ccccc1 | 38 | 31.6
21 | CC[C@@H]1O[C@H](COCc2ccccc2)[C@@H](OCc2ccccc2)[C@H](OCc2ccccc2)[C@H]1OC(C)=O | > 50 | > 50
22 | ClC1(Cl)[C@@H]2[C@@H](OCc3ccccc3)[C@H](OCc3ccccc3)[C@@H](COCc3ccccc3)O[C@@H]21 | > 50 | 1.6
23 | C=CC[C@@H]1O[C@H](COCc2ccccc2)[C@@H](OCc2ccccc2)[C@H](OCc2ccccc2)C1=O | > 50 | 7.6
24 | O=C1[C@H](Cc2ccccc2)O[C@H](COCc2ccccc2)[C@@H](OCc2ccccc2)[C@@H]1OCc1ccccc1 | > 50 | > 50
25 | CCCCCCCCCCCCCCCOC[C@H]1O[C@H](CCC)[C@H](O)[C@@H](OCCCCCCCCCCCCCCC)[C@@H]1OCCCCCCCCCCCCCCC | 28.7 | 29.9
26 | O[C@H]1CO[C@H](COCc2ccccc2)[C@@H](OCc2ccccc2)[C@@H]1OCc1ccccc1 | > 50 | 37.9

Row | Compound | GI50 (HeLa) [µM] | GI50 (HOS) [µM]
27 | CC[C@H]1O[C@H](COCc2ccccc2)[C@@H](OCc2ccccc2)[C@H](OCc2ccccc2)[C@H]1O | > 50 | > 50
28 | CC(=O)O[C@@H]1[C@@H](OC(C)=O)[C@H](Cc2ccccc2)O[C@H](COCc2ccccc2)[C@H]1OC(C)=O | > 50 | > 50
29 | CC(=O)O[C@@H]1[C@@H](OCc2ccccc2)[C@H](OCc2ccccc2)[C@@H](COCc2ccccc2)O[C@@H]1CC(C)C | > 50 | > 50
30 | CCC[C@@H]1O[C@H](CO)[C@@H](O)[C@H](O)[C@H]1O | > 50 | > 50
31 | O[C@@H]1[C@@H](O)[C@H](Cc2ccccc2)O[C@H](COCc2ccccc2)[C@H]1OCc1ccccc1 | 47.9 | 33.5
32 | O[C@@H]1[C@@H](OCc2ccccc2)[C@H](OCc2ccccc2)[C@@H](COCc2ccccc2)O[C@@H]1CC1CCCCC1 | > 50 | 20.7
33 | O[C@@H]1[C@@H](OCc2ccccc2)[C@H](OCc2ccccc2)[C@@H](COCc2ccccc2)O[C@H]1CC1CC1 | > 50 | > 50
34 | O[C@@H]1[C@@H](OCc2ccccc2)[C@H](OCc2ccccc2)[C@@H](COCc2ccccc2)O[C@H]1Cc1ccccc1 | 17.4 | 29.2
35 | CC[C@@H]1O[C@H](COCc2ccccc2)[C@@H](OCc2ccccc2)[C@H](OCc2ccccc2)[C@H]1O | 19.8 | 34.2
36 | OCCC[C@@H]1O[C@H](COCc2ccccc2)[C@@H](OCc2ccccc2)[C@H](OCc2ccccc2)[C@H]1O | > 50 | > 50
37 | CC(=O)O[C@@H]1[C@@H](OCc2ccccc2)[C@H](OC(C)=O)[C@@H](COCc2ccccc2)O[C@H]1Cc1ccccc1 | 5.4 | 6.1
38 | CC(C)C[C@@H]1O[C@H](COCc2ccccc2)[C@@H](OCc2ccccc2)[C@H](OCc2ccccc2)[C@@H]1O | 24.6 | 26.3
39 | C=CC[C@@H]1O[C@H](COCc2ccccc2)[C@@H](OCc2ccccc2)[C@H](OCc2ccccc2)[C@H]1OCc1ccccc1 | > 50 | > 50
40 | CC(=O)O[C@@H]1[C@@H](OCc2ccccc2)[C@H](OCc2ccccc2)[C@@H](COCc2ccccc2)O[C@H]1C | > 50 | 8.8
41 | C[C@@H]1O[C@H](COCc2ccccc2)[C@@H](OCc2ccccc2)[C@H](OCc2ccccc2)C1=O | > 50 | > 50
42 | CCC[C@@H]1O[C@H](COCc2ccc3ccccc3c2)[C@@H](OCc2ccc3ccccc3c2)[C@H](OCc2ccc3ccccc3c2)[C@H]1O | > 50 | > 50
43 | CC[C@@H]1O[C@H](COCc2ccccc2)[C@@H](OCc2ccccc2)[C@H](OCc2ccccc2)C1=O | > 50 | 4.3
44 | CCC[C@@H]1O[C@H](COCc2ccc3ccccc3c2)[C@@H](OCc2ccc3ccccc3c2)[C@H](OCc2ccc3ccccc3c2)[C@H]1OC(C)=O | > 50 | > 50
45 | CCC[C@H]1O[C@H](COCc2ccccc2)[C@@H](OCc2ccccc2)[C@H](OCc2ccccc2)C1=O | > 50 | > 50
46 | C=CC[C@@H]1O[C@H](COCc2ccccc2)[C@@H](OCc2ccccc2)[C@H](OCc2ccccc2)[C@H]1OC(C)=O | > 50 | 11
47 | CCCCOC[C@H]1O[C@@H](CCC)C(=O)[C@@H](OCCCC)[C@@H]1OCCCC | > 50 | > 50
48 | OCC[C@@H]1O[C@H](COCc2ccccc2)[C@@H](OCc2ccccc2)[C@H](OCc2ccccc2)[C@H]1O | 30.2 | 39.7
49 | CCC[C@@H]1O[C@H](COCc2ccc(F)cc2)[C@@H](OCc2ccc(F)cc2)[C@H](OCc2ccc(F)cc2)[C@H]1O | 12.3 | 17.2
50 | CC(C)C[C@H]1O[C@H](COCc2ccccc2)[C@@H](OCc2ccccc2)[C@H](OCc2ccccc2)[C@H]1O | 43.9 | 44.5
51 | CC(C)C[C@@H]1O[C@H](COCc2ccccc2)[C@@H](OCc2ccccc2)[C@H](OCc2ccccc2)C1=O | > 50 | > 50
52 | O[C@@H]1[C@@H](OCc2ccccc2)[C@H](OCc2ccccc2)[C@@H](COCc2ccccc2)O[C@H]1CC1CCCCC1 | 9.5 | 4.4
